How the values were obtained:
[1] = test system: defatted column of the cerebral cortex area of pig brain; assay: Evaluation of antibody penetration efficiency (peak-bottom ratio), anti-synaptophysin antibody; conditions: 2.5% by weight in Immunostaining Buffer E vs distilled water, 32° C., 1 day
Protocol: After the defatting treatment, the sample was washed with PBS, and soaked in Immunostaining Buffer E that was mixed with a mouse monoclonal anti-synaptophysin antibody (manufactured by Medical & Biological Laboratories Co., Ltd.; #D073-3; 20 μg/mL) and Fab-anti-mouse IgG1 labeled with Alexa 594 (added such that the weight ratio to the anti-synaptophysin antibody was about 1:1) and further supplemented with 2.5% by weight Quadrol or the same amount of distilled water. The sample was stained at 32° C. for 1 day. After the staining, the sample was washed with PB-Triton and PB, and a frozen section in the central portion of the sample was prepared.
FIGS. 18A and B show images of the frozen sections of the samples stained with Immunostaining Buffer E to which distilled water or Quadrol, respectively, was added. […] For quantification, a representative area showing almost uniform staining of the left and right sides of the column was selected using a micrographic image, and a brightness-value graph was prepared. In the graph, the ratio (peak-bottom ratio) of the maximum brightness (peak) in the left and right to the minimum brightness (bottom) in the sample was high in the sample to which Quadrol was not added. […] Thus, using the peak-bottom ratio as a quantitative index of penetrability of an antibody into a tissue, a search was carried out for compounds as follows. […]

[2] = test system: defatted mouse cerebral hemisphere; assay: 3D immunostaining with combinations of additives; conditions: Immunostaining Buffer E; antibodies against synaptophysin, Gad67, Dat or Th; 32° C., 3 to 4 days
Text: Fab-anti-mouse or rabbit IgG against each primary antibody, labeled with Alexa 594 (manufactured by Jackson ImmunoResearch laboratories; Fab-anti-mouse IgG1-[…] (#115-587-185), Fab-anti-mouse IgG2a-[…] (#115-587-186), or Fab-anti-rabbit IgG-[…] (#111-587-008), added such that the weight ratio to each primary antibody was about 1:0.75); and predetermined concentrations of additives (two or three selected from #0854, #1086, and #0609 described in FIG. 1A and #0146 described in FIG. 1B).

SMILES	penetration of the antibody [1]	penetration-promoting effect for the antibodies / staining performance inside the sample [2]
CC(O)CN(CCN(CC(C)O)CC(C)O)CC(C)O (centres unmarked) [Quadrol, N,N,N′,N′-tetrakis(2-hydroxypropyl)ethylenediamine]	penetration of the antibody was effectively increased	
CN(C)CCOCCO [#0146, 2-[2-(Dimethylamino)ethoxy]ethanol]		even stronger penetration-promoting effect

— patent US20220326125A1, “BIOLOGICAL TISSUE STAINING REAGENT, BIOLOGICAL TISSUE STAINING KIT AND BIOLOGICAL TISSUE STAINING METHOD” (CUBICStars, Inc., priority 2019, published 2022)
